From patent US9873680B2 (Gilead Sciences, Inc., priority 2014, dated 2018)
Read-outs that look alike come from different tables or passages of the source.

Assays:
HIV-IIIb = assay: Test A: Antiviral Assay in MT4 Cells; format: cell-based, HIV-1; details: for inhibition at 0.2 µM: 0.2 μM drug concentration
Protocol: Test A: Antiviral Assay in MT4 Cells
MT-4 cells were next mixed with HIV-IIIb at an m.o.i of 0.003 for 1 hour, after which time 35 μL of virus/cell mixture (2000 cells) was immediately added to each well containing 40 μL of diluted compound. The plates were then incubated at 37° C. for 5 days. After 5 days of incubation, 25 μl of 2× concentrated CellTiter-Glo™ Reagent (catalog #G7571, Promega Biosciences, Inc., Madison, Wis.) was added to each well containing MT-4 cells. Cell lysis was carried out by incubating at room temperature for 10 min and then chemiluminescence was read.

[1] = Test B: Cytotoxicity Assay; format: cell-based; details: human, uninfected MT-4 cells, CellTiter-Glo
Protocol: Test B: Cytotoxicity Assay Compound cytotoxicity and the corresponding CC50 values was determined using the same protocol as described in the antiviral assay (Test A) except that uninfected cells were used.

[2] = Human immunodeficiency virus 1, MT4, 120 h, MT-4 cells infected with HIV-IIIb, 5 days, values normalized to 100%, average over time, read-out: % inhibition at 0.2 μM (percent inhibition of virus-induced cell killing)

Row | Compound | inhibition at 0.2 µM (HIV-IIIb; [2]) [%] | CC50 at 5 days [1] [µM] | inhibition at 0.2 µM (HIV-IIIb; Human immunodeficiency virus 1, IIIB, MT4, comparison with previously published compounds, read-out: Response at 0.2 μM (percent inhibition of virus-induced cell killing)) [%] | inhibition at 2 µM (HIV-IIIb; Human immunodeficiency virus 1, IIIB, MT4, 2 μM drug concentration, comparison with previously published compounds, read-out: Response at 2 μM (percent inhibition of virus-induced cell killing)) [%]
1 | Cn1nc(NS(C)(=O)=O)c2cccc(-c3ccc(C#CC4(C)COC4)nc3[C@H](Cc3cc(F)cc(F)c3)NC(=O)Cn3nc(C(F)(F)F)c4c3C(F)(F)[C@@H]3C[C@H]43)c21 [Compound 29, 2-((3bS,4aR)-5,5-difluoro-3-(trifluoromethyl)-3b,4,4a,5-tetrahydro-1H-cyclopropa[3,4]cyclopenta[1,2-c]pyrazol-1-yl)-N—((S)-2-(3,5-difluorophenyl)-1-(3-(1-methyl-3-(methylsulfonamido)-1H-indazol-7-yl)-6-((3-methyloxetan-3-yl)ethynyl)pyridin-2-yl)ethyl)acetamide] | 100 | 12.4 |  | 
2 | Cn1nc(NS(C)(=O)=O)c2cccc(-c3ccc(C#CC4(O)CCOC4)nc3[C@H](Cc3cc(F)cc(F)c3)NC(=O)Cn3nc(C(F)(F)F)c4c3C(F)(F)[C@@H]3C[C@H]43)c21 (stereo partly drawn) [Compound 30B, 2-((3bS,4aR)-5,5-difluoro-3-(trifluoromethyl)-3b,4,4a,5-tetrahydro-1H-cyclopropa[3,4]cyclopenta[1,2-c]pyrazol-1-yl)-N-((1S)-2-(3,5-difluorophenyl)-1-(6-((3-hydroxytetrahydrofuran-3-yl)ethynyl)-3-(1-methyl-3-(methylsulfonamido)-1H-indazol-7-yl)pyridin-2-yl)ethyl)acetamide] | 100 | 19.5 |  | 
3 | CN1CCC(O)(C#Cc2ccc(-c3cccc4c(NS(C)(=O)=O)nn(C)c34)c([C@H](Cc3cc(F)cc(F)c3)NC(=O)Cn3nc(C(F)(F)F)c4c3C(F)(F)[C@@H]3C[C@H]43)n2)CC1 [Compound 31, 2-((3bS,4aR)-5,5-difluoro-3-(trifluoromethyl)-3b,4,4a,5-tetrahydro-1H-cyclopropa[3,4]cyclopenta[1,2-c]pyrazol-1-yl)-N—((S)-2-(3,5-difluorophenyl)-1-(6-((4-hydroxy-1-methylpiperidin-4-yl)ethynyl)-3-(1-methyl-3-(methylsulfonamido)-1H-indazol-7-yl)pyridin-2-yl)ethyl)acetamide] | 93 | 20.2 |  | 
4 | CN1CCN(CC#Cc2ccc(-c3cccc4c(NS(C)(=O)=O)nn(C)c34)c([C@H](Cc3cc(F)cc(F)c3)NC(=O)Cn3nc(C(F)(F)F)c4c3C(F)(F)[C@@H]3C[C@H]43)n2)CC1 [Compound 32, 2-((3bS,4aR)-5,5-difluoro-3-(trifluoromethyl)-3b,4,4a,5-tetrahydro-1H-cyclopropa[3,4]cyclopenta[1,2-c]pyrazol-1-yl)-N—((S)-2-(3,5-difluorophenyl)-1-(3-(1-methyl-3-(methylsulfonamido)-1H-indazol-7-yl)-6-(3-(4-methylpiperazin-1-yl)prop-1-yn-1-yl)pyridin-2-yl)ethyl)acetamide] | 95 | 8.53 |  | 
5 | Cn1cncc1C#Cc1ccc(-c2cccc3c(NS(C)(=O)=O)nn(C)c23)c([C@H](Cc2cc(F)cc(F)c2)NC(=O)Cn2nc(C(F)(F)F)c3c2C(F)(F)[C@@H]2C[C@H]32)n1 [Compound 33, 2-((3bS,4aR)-5,5-difluoro-3-(trifluoromethyl)-3b,4,4a,5-tetrahydro-1H-cyclopropa[3,4]cyclopenta[1,2-c]pyrazol-1-yl)-N—((S)-2-(3,5-difluorophenyl)-1-(6-((1-methyl-1H-imidazol-5-yl)ethynyl)-3-(1-methyl-3-(methylsulfonamido)-1H-indazol-7-yl)pyridin-2-yl)ethyl)acetamide] | 93 | 12.5 |  | 
6 | Cn1nc(NS(C)(=O)=O)c2cccc(-c3ccc(C#CCN4CCOCC4)nc3[C@H](Cc3cc(F)cc(F)c3)NC(=O)Cn3nc(C(F)(F)F)c4c3C(F)(F)[C@@H]3C[C@H]43)c21 [Compound 34, 2-((3bS,4aR)-5,5-difluoro-3-(trifluoromethyl)-3b,4,4a,5-tetrahydro-1H-cyclopropa[3,4]cyclopenta[1,2-c]pyrazol-1-yl)-N—((S)-2-(3,5-difluorophenyl)-1-(3-(1-methyl-3-(methylsulfonamido)-1H-indazol-7-yl)-6-(3-morpholinoprop-1-yn-1-yl)pyridin-2-yl)ethyl)acetamide] | 87 | 10.2 |  | 
7 | NC(=O)c1cc(-c2ccc(C#CC3(O)CCOCC3)nc2[C@H](Cc2cc(F)cc(F)c2)NC(=O)Cn2nc(C(F)(F)F)c3c2C(F)(F)[C@@H]2C[C@H]32)ccc1F [Compound 35, 5-(2-((S)-1-(2-((3bS,4aR)-5,5-difluoro-3-(trifluoromethyl)-3b,4,4a,5-tetrahydro-1H-cyclopropa[3,4]cyclopenta[1,2-c]pyrazol-1-yl)acetamido)-2-(3,5-difluorophenyl)ethyl)-6-((4-hydroxytetrahydro-2H-pyran-4-yl)ethynyl)pyridin-3-yl)-2-fluorobenzamide] | 86 | 10.1 | 86 | 86
8 | Cn1nc(NS(C)(=O)=O)c2cccc(-c3ccc(C#CC4CCCCN4)nc3[C@H](Cc3cc(F)cc(F)c3)NC(=O)Cn3nc(C(F)(F)F)c4c3C(F)(F)[C@@H]3C[C@H]43)c21 (stereo partly drawn) [Compound 36B, 2-((3bS,4aR)-5,5-difluoro-3-(trifluoromethyl)-3b,4,4a,5-tetrahydro-1H-cyclopropa[3,4]cyclopenta[1,2-c]pyrazol-1-yl)-N-((1S)-2-(3,5-difluorophenyl)-1-(3-(1-methyl-3-(methylsulfonamido)-1H-indazol-7-yl)-6-(piperidin-2-ylethynyl)pyridin-2-yl)ethyl)acetamide] | 83 | 6.57 |  | 
9 | Cn1nc(NS(C)(=O)=O)c2cccc(-c3ccc(C#CC4(O)CCCC4)nc3[C@H](Cc3cc(F)cc(F)c3)NC(=O)Cn3nc(C(F)(F)F)c4c3C(F)(F)[C@@H]3C[C@H]43)c21 [Compound 37, 2-((3bS,4aR)-5,5-difluoro-3-(trifluoromethyl)-3b,4,4a,5-tetrahydro-1H-cyclopropa[3,4]cyclopenta[1,2-c]pyrazol-1-yl)-N—((S)-2-(3,5-difluorophenyl)-1-(6-((1-hydroxycyclopentyl)ethynyl)-3-(1-methyl-3-(methylsulfonamido)-1H-indazol-7-yl)pyridin-2-yl)ethyl)acetamide] | 80 | 8.71 |  | 
10 | Cn1nc(NS(C)(=O)=O)c2c(Cl)ccc(-c3ccc(C#CC4(O)COC4)nc3[C@H](Cc3cc(F)cc(F)c3)NC(=O)Cn3nc(C(F)(F)F)c4c3C(F)(F)[C@@H]3C[C@H]43)c21 [Compound 38, N—((S)-1-(3-(4-chloro-1-methyl-3-(methylsulfonamido)-1H-indazol-7-yl)-6-((3-hydroxyoxetan-3-yl)ethynyl)pyridin-2-yl)-2-(3,5-difluorophenyl)ethyl)-2-((3bS,4aR)-5,5-difluoro-3-(trifluoromethyl)-3b,4,4a,5-tetrahydro-1H-cyclopropa[3,4]cyclopenta[1,2-c]pyrazol-1-yl)acetamide] | 97 | 14.3 |  | 
11 | Cn1nc(NS(C)(=O)=O)c2c(Cl)ccc(-c3ccc(C#CC4(O)CCOCC4)nc3[C@H](Cc3cc(F)cc(F)c3)NC(=O)Cn3nc(C(F)(F)F)c4c3C(F)(F)[C@@H]3C[C@H]43)c21 [Compound 39, N—((S)-1-(3-(4-chloro-1-methyl-3-(methylsulfonamido)-1H-indazol-7-yl)-6-((4-hydroxytetrahydro-2H-pyran-4-yl)ethynyl)pyridin-2-yl)-2-(3,5-difluorophenyl)ethyl)-2-((3bS,4aR)-5,5-difluoro-3-(trifluoromethyl)-3b,4,4a,5-tetrahydro-1H-cyclopropa[3,4]cyclopenta[1,2-c]pyrazol-1-yl)acetamide] | 95 | 10.7 |  | 
